DC50, Dmax and IC50 data for 17 compounds are collected here from patent US20250214991A1 (Oncopia Therapeutics, Inc. d/b/a/ SK Life Science Labs, priority 2022, published 2025).

For experiment [1], the target named is IKZF1 (Homo sapiens (Human), UniProt Q13422+Q96SW2). The experiment in a line: In vitro IKZF1 HiBit Assay (HEK293T Flp-in-HiBiT-IKZF1 stable cell line). To be noted: HEK293T Flp-in-HiBiT-IKZF1 stable cell line, 6 hrs incubation; for DC50: read-out: IKZF1 HiBit DC50; for Dmax: HEK-293T, read-out: IKZF1 HiBit Dmax (%). It counts as cell-based. The method, boiled down:
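HEK293T Flp-in cells carrying N-terminal HiBiT-tagged IKZF1 were exposed to compound (0.1% DMSO) for 6 h at 3000 cells/well. HiBiT luminescence was read after lytic LgBiT detection. DC50 and Dmax were taken from DMSO-normalized dose-response curves.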

The target in experiment [2] is IKZF2 (Homo sapiens (Human), UniProt Q96SW2+Q9UKS7). The experiment in a line: In vitro IKZF2 HiBit Assay (HEK293T Flp-in-HiBiT cells). In kind it is cell-based. To be noted: HEK293T Flp-in-HiBiT cells, 6 hrs incubation; for DC50: read-out: IKZF2 HiBit DC50; for Dmax: HEK-293T, read-out: IKZF2 HiBit Dmax (%). The method, boiled down: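 HEK293T Flp-in cells carrying an endogenous N-terminal HiBiT tag on IKZF2 were exposed to compound for 6 h at 0.1% DMSO. The dilution series was 11 doses at 3-fold, diluted from 1 mM. Nano-Glo HiBiT lytic luminescence, normalized to DMSO, gave DC50 for 50% degradation and Dmax across the concentration range, both reported in letter bins.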
(In general: HiBiT is a short tag that completes a luciferase, so light tracks the accessible tagged protein.)

Experiment [3] has as its target CRBN/DDB1 (Homo sapiens (Human), UniProt Q96SW2). The experiment in a line: IC50 measurements for binding to CRBN/DDB1 (HTRF). To be noted: His tagged CRBN+DDB, Cy5-labeled Thalidomide probe, one hour. In outline:
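HTRF competition binding with 2 nM His-tagged CRBN-DDB1 complex, 60 nM Cy5-thalidomide probe and 0.4 nM anti-His Tb cryptate in 50 mM HEPES pH 7.5, 1 mM TCEP, 0.01% Brij-35, 50 mM NaCl, 0.1% BSA. Read after 1 h at room temperature; IC50 from four-parameter dose-response fit.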

Where only a bound is given, the exact number is not on record here.

Chain of CRBN/DDB1 (Q96SW2 whole entry, species assumed): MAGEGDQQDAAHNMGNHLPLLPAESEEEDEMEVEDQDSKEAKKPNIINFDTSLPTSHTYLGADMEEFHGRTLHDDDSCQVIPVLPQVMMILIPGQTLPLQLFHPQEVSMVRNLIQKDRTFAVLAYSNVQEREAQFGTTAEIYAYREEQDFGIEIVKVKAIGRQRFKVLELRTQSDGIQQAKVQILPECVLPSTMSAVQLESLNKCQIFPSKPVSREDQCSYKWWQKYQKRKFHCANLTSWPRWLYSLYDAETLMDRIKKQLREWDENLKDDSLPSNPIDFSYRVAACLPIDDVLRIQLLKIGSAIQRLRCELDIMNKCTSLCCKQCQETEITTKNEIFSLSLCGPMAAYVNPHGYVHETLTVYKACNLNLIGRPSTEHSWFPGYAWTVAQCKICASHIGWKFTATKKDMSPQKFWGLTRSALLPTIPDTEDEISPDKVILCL
Chain of CRBN/DDB1 (Q16531 whole entry partner, species assumed): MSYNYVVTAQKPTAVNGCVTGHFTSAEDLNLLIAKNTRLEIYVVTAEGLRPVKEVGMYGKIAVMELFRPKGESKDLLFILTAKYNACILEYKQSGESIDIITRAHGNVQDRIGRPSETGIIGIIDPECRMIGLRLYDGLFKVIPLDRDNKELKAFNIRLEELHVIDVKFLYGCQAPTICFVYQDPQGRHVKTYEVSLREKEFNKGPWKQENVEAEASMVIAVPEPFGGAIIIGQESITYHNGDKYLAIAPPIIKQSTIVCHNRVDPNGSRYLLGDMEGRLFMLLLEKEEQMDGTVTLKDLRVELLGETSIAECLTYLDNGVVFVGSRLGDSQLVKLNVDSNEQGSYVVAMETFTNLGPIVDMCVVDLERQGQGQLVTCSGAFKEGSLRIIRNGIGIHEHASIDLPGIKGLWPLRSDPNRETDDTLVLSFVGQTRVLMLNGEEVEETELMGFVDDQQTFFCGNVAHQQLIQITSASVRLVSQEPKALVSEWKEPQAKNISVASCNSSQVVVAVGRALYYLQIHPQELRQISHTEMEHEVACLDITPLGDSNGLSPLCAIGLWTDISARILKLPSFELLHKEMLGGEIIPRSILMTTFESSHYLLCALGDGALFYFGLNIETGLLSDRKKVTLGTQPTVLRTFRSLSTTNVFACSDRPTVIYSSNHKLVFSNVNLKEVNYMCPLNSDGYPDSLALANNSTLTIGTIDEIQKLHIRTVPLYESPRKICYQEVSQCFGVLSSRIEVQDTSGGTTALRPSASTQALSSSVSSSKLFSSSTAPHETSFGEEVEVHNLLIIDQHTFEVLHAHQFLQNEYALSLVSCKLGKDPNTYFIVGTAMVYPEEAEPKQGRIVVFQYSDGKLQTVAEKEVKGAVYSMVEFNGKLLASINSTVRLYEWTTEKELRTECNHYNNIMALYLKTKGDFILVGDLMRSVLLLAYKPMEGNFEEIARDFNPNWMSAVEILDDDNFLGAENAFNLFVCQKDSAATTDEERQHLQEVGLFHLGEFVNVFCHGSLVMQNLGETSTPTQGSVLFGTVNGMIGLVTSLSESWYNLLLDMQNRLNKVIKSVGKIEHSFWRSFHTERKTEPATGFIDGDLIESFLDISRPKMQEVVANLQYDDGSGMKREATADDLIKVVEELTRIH
Chain of IKZF2 (Q9UKS7 whole entry): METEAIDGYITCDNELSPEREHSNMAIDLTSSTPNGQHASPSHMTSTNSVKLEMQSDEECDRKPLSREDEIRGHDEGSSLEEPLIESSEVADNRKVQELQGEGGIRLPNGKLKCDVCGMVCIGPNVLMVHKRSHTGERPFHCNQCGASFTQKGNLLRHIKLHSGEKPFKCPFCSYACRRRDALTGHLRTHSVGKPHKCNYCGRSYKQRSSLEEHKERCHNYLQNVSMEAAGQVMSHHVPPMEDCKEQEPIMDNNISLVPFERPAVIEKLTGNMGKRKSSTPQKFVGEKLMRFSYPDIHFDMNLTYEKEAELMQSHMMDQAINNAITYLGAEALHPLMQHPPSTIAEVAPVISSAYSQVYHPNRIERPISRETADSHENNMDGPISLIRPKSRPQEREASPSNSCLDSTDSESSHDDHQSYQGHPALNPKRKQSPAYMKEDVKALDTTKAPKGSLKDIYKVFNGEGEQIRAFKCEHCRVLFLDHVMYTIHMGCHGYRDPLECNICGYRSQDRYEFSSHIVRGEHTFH
Chain of IKZF2 (Q96SW2 whole entry): as the sequence (Q96SW2 whole entry, species assumed) above
Chain of IKZF2 (Q16531 2-1140 partner): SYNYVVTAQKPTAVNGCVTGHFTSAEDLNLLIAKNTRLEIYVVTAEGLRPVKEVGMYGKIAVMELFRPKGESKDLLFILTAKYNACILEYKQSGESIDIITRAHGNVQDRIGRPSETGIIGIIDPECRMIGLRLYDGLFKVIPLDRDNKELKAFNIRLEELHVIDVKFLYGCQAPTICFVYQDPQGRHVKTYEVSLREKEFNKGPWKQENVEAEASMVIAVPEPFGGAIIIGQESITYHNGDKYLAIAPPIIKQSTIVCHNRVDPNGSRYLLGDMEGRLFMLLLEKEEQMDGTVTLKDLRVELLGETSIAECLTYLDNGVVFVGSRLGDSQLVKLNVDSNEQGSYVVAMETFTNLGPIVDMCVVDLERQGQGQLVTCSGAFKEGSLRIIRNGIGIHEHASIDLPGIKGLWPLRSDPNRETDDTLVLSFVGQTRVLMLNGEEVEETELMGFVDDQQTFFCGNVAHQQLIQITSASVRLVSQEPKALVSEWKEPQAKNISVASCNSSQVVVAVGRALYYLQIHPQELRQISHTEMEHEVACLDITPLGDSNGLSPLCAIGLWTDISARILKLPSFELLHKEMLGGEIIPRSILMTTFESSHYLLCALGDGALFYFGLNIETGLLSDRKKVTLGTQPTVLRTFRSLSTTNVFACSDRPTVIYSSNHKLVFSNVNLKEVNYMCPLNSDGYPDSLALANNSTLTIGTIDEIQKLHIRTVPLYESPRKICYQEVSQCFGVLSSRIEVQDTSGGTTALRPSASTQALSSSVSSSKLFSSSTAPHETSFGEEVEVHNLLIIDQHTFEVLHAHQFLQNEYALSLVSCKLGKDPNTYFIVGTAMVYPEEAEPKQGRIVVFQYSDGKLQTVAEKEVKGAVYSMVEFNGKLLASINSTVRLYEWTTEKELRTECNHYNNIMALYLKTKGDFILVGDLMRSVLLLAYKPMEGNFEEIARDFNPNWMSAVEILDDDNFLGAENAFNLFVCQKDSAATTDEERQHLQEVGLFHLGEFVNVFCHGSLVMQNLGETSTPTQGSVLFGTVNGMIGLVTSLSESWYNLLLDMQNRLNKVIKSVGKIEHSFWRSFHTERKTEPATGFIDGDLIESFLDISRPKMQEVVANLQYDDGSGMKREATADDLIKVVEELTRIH
Chain of IKZF1 (Q13422 whole entry): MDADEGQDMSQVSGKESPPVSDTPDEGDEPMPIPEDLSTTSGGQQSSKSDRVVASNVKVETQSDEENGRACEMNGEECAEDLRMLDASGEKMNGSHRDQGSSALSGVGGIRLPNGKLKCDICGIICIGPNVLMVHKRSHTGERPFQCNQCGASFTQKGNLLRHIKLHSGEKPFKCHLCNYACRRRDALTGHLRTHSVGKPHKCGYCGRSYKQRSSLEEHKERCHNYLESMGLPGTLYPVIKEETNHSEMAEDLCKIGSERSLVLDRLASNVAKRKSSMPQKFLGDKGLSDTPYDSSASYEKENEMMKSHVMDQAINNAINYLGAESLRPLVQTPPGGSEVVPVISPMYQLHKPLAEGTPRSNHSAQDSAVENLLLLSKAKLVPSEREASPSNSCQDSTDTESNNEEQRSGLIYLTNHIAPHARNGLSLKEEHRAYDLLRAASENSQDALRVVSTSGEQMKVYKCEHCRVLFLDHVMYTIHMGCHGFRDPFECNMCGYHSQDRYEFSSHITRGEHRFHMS
Chain of IKZF1 (Q96SW2 whole entry): as the sequence (Q96SW2 whole entry, species assumed) above
Chain of IKZF1 (Q16531 2-1140 partner): as the sequence (Q16531 2-1140 partner) above

As for `CCn1nc(N)c2nc(-c3ccc4c(c3)CN(C3CCC(=O)NC3=O)C4=O)cc(CN3CCCC3)c21` (stereo not shown) [Example 178, 3-(5-(3-amino-1-ethyl-7-(pyrrolidin-1-ylmethyl)-1H-pyrazolo[4,3-b]pyridin-5-yl)-1-oxoisoindolin-2-yl) piperidine-2,6-dione], the DC50 was in the range of 100 to 1000 nM in experiment [1] and 1 to 10 nM in experiment [2]. For the same compound, the Dmax in experiment [1] lay within 20 to 40%; in experiment [2], 60 to 80%. Besides, the IC50 in experiment [3] lay in the range of 500 to 1000 nM.

Consider `CN(C)c1n[nH]c2c(CN3CCCC3)cc(-c3ccc4c(c3)CN(C3CCC(=O)NC3=O)C4=O)nc12` (stereo not shown) [Example 179, 3-(5-(3-(dimethylamino)-7-(pyrrolidin-1-ylmethyl)-1H-pyrazolo[4,3-b]pyridin-5-yl)-1-oxoisoindolin-2-yl) piperidine-2,6-dione], for which the DC50 is 10 to 100 nM in experiment [1] and under 1 nM in experiment [2]. The Dmax in experiment [1] is 40 to 60%; in experiment [2], over 80%. For the same compound, the IC50 in experiment [3] fell in the range of 5000 to 10000 nM.

Turning to `Cn1ccc2c(CN3CCCC3)nc(-c3ccc4c(c3)CN(C3CCC(=O)NC3=O)C4=O)nc21` (stereo not shown) [Example 184, 3-(5-(7-methyl-4-(pyrrolidin-1-ylmethyl)-7H-pyrrolo[2,3-d]pyrimidin-2-yl)-1-oxoisoindolin-2-yl) piperidine-2,6-dione], in experiment [1], the DC50 was in the range of 1000 to 10000 nM and the Dmax fell in the range of 20 to 40%. Also, in experiment [2], the DC50 lay in the range of 1 to 10 nM and the Dmax is 60 to 80%. Also, in experiment [3], the IC50 lay within 500 to 1000 nM.

Regarding `CS(=O)(=O)C1CCN(Cc2cc(-c3ccc4c(c3)CN(C3CCC(=O)NC3=O)C4=O)nc3c2ccn3C2COC2)CC1` (stereo not shown) [Example 185, 3-(5-(4-((4-(methylsulfonyl)piperidin-1-yl)methyl)-1-(oxetan-3-yl)-1H-pyrrolo[2,3-b]pyridin-6-yl)-1-oxoisoindolin-2-yl) piperidine-2,6-dione], in experiment [1], the DC50 was over 10000 nM and the Dmax is under 20%. Moreover, in experiment [2], the DC50 lay in the range of 100 to 1000 nM and the Dmax was 40 to 60%. In addition, in experiment [3], the IC50 was 500 to 1000 nM.

As to `O=C1CCC(N2Cc3cc(-c4cc(CN5CCC6(CC5)COC6)c5ccn(C6COC6)c5n4)ccc3C2=O)C(=O)N1` (stereo not shown) [Example 188, 3-(5-(4-((2-oxa-7-azaspiro[3.5]nonan-7-yl)methyl)-1-(oxetan-3-yl)-1H-pyrrolo[2,3-b]pyridin-6-yl)-1-oxoisoindolin-2-yl) piperidine-2,6-dione], in experiment [1], the DC50 was over 10000 nM and the Dmax is under 20%. Further, in experiment [2], the DC50 lay in the range of 1 to 10 nM and the Dmax lay within 60 to 80%. Moreover, in experiment [3], the IC50 was 500 to 1000 nM.

With `CN(C)C1CCN(Cc2cc(-c3ccc4c(c3)CN(C3CCC(=O)NC3=O)C4=O)nc3c2ccn3C2COC2)CC1` (stereo not shown) [Example 190, 3-(5-(4-((4-(dimethylamino)piperidin-1-yl)methyl)-1-(oxetan-3-yl)-1H-pyrrolo[2,3-b]pyridin-6-yl)-1-oxoisoindolin-2-yl) piperidine-2,6-dione], in experiment [1], the DC50 is over 10000 nM and the Dmax was under 20%. For the same compound, in experiment [2], the DC50 is 10 to 100 nM and the Dmax is 40 to 60%. For the same compound, the IC50 in experiment [3] lay in the range of 100 to 500 nM.

For the compound `O=C1CCC(N2Cc3cc(-c4cc(CN5CC6COCC(C6)C5)c5ccn(C6COC6)c5n4)ccc3C2=O)C(=O)N1` (stereo not shown) [Example 191, 3-(5-(4-((3-oxa-7-azabicyclo[3.3.1]nonan-7-yl)methyl)-1-(oxetan-3-yl)-1H-pyrrolo[2,3-b]pyridin-6-yl)-1-oxoisoindolin-2-yl) piperidine-2,6-dione], in experiment [1], the DC50 is over 10000 nM and the Dmax was under 20%. In experiment [2], the DC50 was in the range of 1 to 10 nM and the Dmax fell in the range of 60 to 80%. The compound also came in with an IC50 in experiment [3] of 1000 to 5000 nM.

On to `N#CC1CCN(Cc2cc(-c3ccc4c(c3)CN(C3CCC(=O)NC3=O)C4=O)nc3c2ccn3C2COC2)CC1` (stereo not shown) [Example 192, 1-((6-(2-(2,6-dioxopiperidin-3-yl)-1-oxoisoindolin-5-yl)-1-(oxetan-3-yl)-1H-pyrrolo[2,3-b]pyridin-4-yl)methyl) piperidine-4-carbonitrile], for which the values for the DC50 in experiment [1] and in experiment [2] were over 10000 nM and 10 to 100 nM, respectively. For the same compound, the Dmax is under 20% in experiment [1] and 60 to 80% in experiment [2]. In experiment [3], the IC50 was 1000 to 5000 nM.

For `Cc1nc2nc(-c3ccc4c(c3)CN(C3CCC(=O)NC3=O)C4=O)cc(CN3CCCC3)c2o1` (stereo not shown) [Example 194, 3-(5-(2-methyl-7-(pyrrolidin-1-ylmethyl)oxazolo[4,5-b]pyridin-5-yl)-1-oxoisoindolin-2-yl) piperidine-2,6-dione], in experiment [1], the DC50 is over 10000 nM and the Dmax is under 20%. In experiment [2], the DC50 was 1 to 10 nM and the Dmax was over 80%. Moreover, the IC50 in experiment [3] was in the range of 1000 to 5000 nM.

Regarding `Cc1cc(-c2ccc3c(c2)CN(C2CCC(=O)NC2=O)C3=O)nc2nc(CN3CCCC3)oc12` (stereo not shown) [Example 195, 3-(5-(7-methyl-2-(pyrrolidin-1-ylmethyl)oxazolo[4,5-b]pyridin-5-yl)-1-oxoisoindolin-2-yl) piperidine-2,6-dione], in experiment [1], the DC50 was over 10000 nM and the Dmax is under 20%. For the same compound, in experiment [2], the DC50 was 10 to 100 nM and the Dmax lay within 60 to 80%. The same compound came in with an IC50 in experiment [3] of 1000 to 5000 nM.

For `Nc1n[nH]c2c(CN3CCC(O)C3)cc(-c3ccc4c(c3)CN(C3CCC(=O)NC3=O)C4=O)nc12` (stereo not shown) [Example 196, 3-(5-(3-amino-7-((3-hydroxypyrrolidin-1-yl)methyl)-1H-pyrazolo[4,3-b]pyridin-5-yl)-1-oxoisoindolin-2-yl) piperidine-2,6-dione], in experiment [1], the DC50 was over 10000 nM and the Dmax was under 20%. In experiment [2], the DC50 lay in the range of 100 to 1000 nM and the Dmax was in the range of 40 to 60%. The IC50 in experiment [3] lay in the range of 1000 to 5000 nM.

On to `Cc1nc2c(CN3CCCC3)cc(-c3ccc4c(c3)CN(C3CCC(=O)NC3=O)C4=O)nc2o1` (stereo not shown) [Example 197, 3-(5-(2-methyl-7-(pyrrolidin-1-ylmethyl)oxazolo [5,4-b]pyridin-5-yl)-1-oxoisoindolin-2-yl) piperidine-2,6-dione], for which the DC50 is over 10000 nM in experiment [1] and 1 to 10 nM in experiment [2]. The Dmax in experiment [1] was under 20%; in experiment [2], 60 to 80%. In addition, the IC50 in experiment [3] is 500 to 1000 nM.

Take `O=C1CCC(N2Cc3cc(-c4cc(CN5CCCC5)c5c(n4)NC(=O)C5)ccc3C2=O)C(=O)N1` (stereo not shown) [Example 200, 3-(1-oxo-5-(2-oxo-4-(pyrrolidin-1-ylmethyl)-2,3-dihydro-1H-pyrrolo[2,3-b]pyridin-6-yl)isoindolin-2-yl) piperidine-2,6-dione]: the DC50 in experiment [1] and in experiment [2] was 100 to 1000 nM each time. Further, the results for the Dmax in experiment [1] and in experiment [2] were 20 to 40% and 60 to 80%, respectively. Also, the IC50 in experiment [3] lay in the range of 100 to 500 nM.

Take `Nc1n[nH]c2c(CN3CCC(F)C3)cc(-c3ccc4c(c3)CN(C3CCC(=O)NC3=O)C4=O)nc12` (stereo not shown) [Example 201, 3-(5-(3-amino-7-((3-fluoropyrrolidin-1-yl)methyl)-1H-pyrazolo[4,3-b]pyridin-5-yl)-1-oxoisoindolin-2-yl) piperidine-2,6-dione]: in experiment [1], the DC50 was 1000 to 10000 nM and the Dmax lay in the range of 20 to 40%. Moreover, in experiment [2], the DC50 was in the range of 10 to 100 nM and the Dmax was 60 to 80%. In experiment [3], the IC50 lay in the range of 500 to 1000 nM.

Take `O=C1CCC(N2Cc3cc(-c4cc(CN5CCCC5)c5[nH]nc(NC6COC6)c5n4)ccc3C2=O)C(=O)N1` (stereo not shown) [Example 204, 3-(5-(3-(oxetan-3-ylamino)-7-(pyrrolidin-1-ylmethyl)-1H-pyrazolo[4,3-b]pyridin-5-yl)-1-oxoisoindolin-2-yl) piperidine-2,6-dione]: in experiment [1], the DC50 is over 10000 nM and the Dmax was under 20%. In addition, in experiment [2], the DC50 is 1000 to 10000 nM and the Dmax was under 20%. In addition, the IC50 in experiment [3] was in the range of 1000 to 5000 nM.

With `Nc1n[nH]c2c(CN3CC(F)C3)cc(-c3ccc4c(c3)CN(C3CCC(=O)NC3=O)C4=O)nc12` (stereo not shown) [Example 207, 3-(5-(3-amino-7-((3-fluoroazetidin-1-yl)methyl)-1H-pyrazolo[4,3-b]pyridin-5-yl)-1-oxoisoindolin-2-yl) piperidine-2,6-dione], in experiment [1], the DC50 was over 10000 nM and the Dmax is under 20%. In addition, in experiment [2], the DC50 fell in the range of 10 to 100 nM and the Dmax lay in the range of 60 to 80%. In experiment [3], the IC50 was 100 to 500 nM.

For the compound `Nc1n[nH]c2c(CN3CCC3)cc(-c3ccc4c(c3)CN(C3CCC(=O)NC3=O)C4=O)nc12` (stereo not shown) [Example 208, 3-(5-(3-amino-7-(azetidin-1-ylmethyl)-1H-pyrazolo[4,3-b]pyridin-5-yl)-1-oxoisoindolin-2-yl) piperidine-2,6-dione], the values for the DC50 in experiment [1] and in experiment [2] were over 10000 nM and 100 to 1000 nM, respectively. The Dmax in experiment [1] is under 20%; in experiment [2], 60 to 80%. Besides, the IC50 in experiment [3] is under 100 nM.

A word on the IC50: it is the concentration that inhibits the measured activity by half. A higher IC50 goes with weaker potency in that assay.
